Consider 14 compounds from PubChem BioAssay (NCI).

Test systems include UO-31 renal; K-562 leukemia; OVCAR-8 ovarian; SF-295 CNS; OVCAR-4 ovarian; SW-620 colon; HOP-92 NSCLC; BT-549 breast; NCI/ADR-RES ovarian; PC-3 prostate.
Assay in all cases: NCI anticancer screen, dose series, 48 h

Where “and” joins values, the source holds several entries; their conditions need not be identical. Equal entries are not always repeated.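 Results reflect a 48-hour exposure of cells in 96-well plates to compound at five concentrations. At the GI50, growth is halved. The concentration for full growth arrest is given as TGI.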

For the compound `FC(F)(F)c1nc(Br)[nH]c1C(F)(F)F`, the TGI with UO-31 renal, in the assay with K-562 leukemia, with OVCAR-8 ovarian, in the assay on SF-295 CNS, in the assay on OVCAR-4 ovarian and in the assay on SW-620 colon was above 100 µM throughout. In the assay on HOP-92 NSCLC, this compound showed a TGI of 71.7 µM.

`O=C(COc1cccc(/C=C2\Oc3ccc4ccccc4c3C2=O)c1)c1ccc([N+](=O)[O-])cc1`: the GI50 in the assay with UO-31 renal was 36.7 µM; in the assay with K-562 leukemia, 12.4 µM; with OVCAR-8 ovarian, 14.2 µM; in the assay with SF-295 CNS it was 57.4 µM; in the assay with OVCAR-4 ovarian it was 20 µM; in the assay with SW-620 colon it was 14 µM. For the same compound, the values for the GI50 in the assay with BT-549 breast, in the assay on NCI/ADR-RES ovarian and in the assay with HOP-92 NSCLC were 17.3 µM, above 100 µM and 12.9 µM, respectively. Moreover, the TGI is above 100 µM in the assay on UO-31 renal; 39.4 µM with K-562 leukemia; 37.2 µM in the assay on OVCAR-8 ovarian; above 100 µM in the assay on SF-295 CNS; 60.3 µM in the assay on OVCAR-4 ovarian; 27 µM in the assay with SW-620 colon. Also, the TGI was 37.6 µM in the assay with BT-549 breast, above 100 µM in the assay on NCI/ADR-RES ovarian and 35.9 µM in the assay on HOP-92 NSCLC.

In the case of `O=C(NCc1ccccc1)C1C(=O)C(=O)N(Cc2ccccc2)C1=O` (stereo unspecified), the TGI with UO-31 renal, in the assay on K-562 leukemia, in the assay with OVCAR-8 ovarian, in the assay with SF-295 CNS, with OVCAR-4 ovarian and with SW-620 colon was above 100 µM throughout. Besides, the TGI with HOP-92 NSCLC is above 100 µM.

`CC[Si](CC)(CC)OC1[C@@H](O[Si](CC)(CC)CC)[C@@H](CNC(=O)NC)O[C@H]1n1cnc2c(NC(=O)Nc3ccccc3)ncnc21` (stereo partly specified): the GI50 was 2.8 µM in the assay with UO-31 renal; 3.49 µM with K-562 leukemia; 3.89 µM in the assay on OVCAR-8 ovarian; 2.89 µM with SF-295 CNS; 3.41 µM with OVCAR-4 ovarian; 4.1 µM with SW-620 colon. The GI50 is 3 µM in the assay on BT-549 breast, 3.96 µM with NCI/ADR-RES ovarian and 1.58 µM with HOP-92 NSCLC. The TGI in the assay on UO-31 renal is 18.1 µM; in the assay on K-562 leukemia, above 100 µM; in the assay on OVCAR-8 ovarian it was above 100 µM; with SF-295 CNS it was 11.7 µM; with OVCAR-4 ovarian, above 100 µM; in the assay with SW-620 colon, above 100 µM. Further, the results for the TGI in the assay on BT-549 breast, in the assay on NCI/ADR-RES ovarian and in the assay on HOP-92 NSCLC were 12.2 µM, above 100 µM and 5.26 µM, respectively.

`Cc1ccc(NC(=O)CCC(=O)C2Cc3ccccc3C2=O)cc1C` (stereo unspecified): the TGI in the assay on UO-31 renal, in the assay on K-562 leukemia, with OVCAR-8 ovarian, in the assay on SF-295 CNS, in the assay with OVCAR-4 ovarian and in the assay with SW-620 colon was above 100 µM each time. For the same compound, the TGI in the assay with HOP-92 NSCLC was above 100 µM.

Regarding `COc1cc(/C=C/c2ccnc3ccccc23)cc(OC)c1OC`, the TGI with UO-31 renal is above 100 µM; in the assay on K-562 leukemia it was above 100 µM; in the assay on OVCAR-8 ovarian, above 100 µM; in the assay on SF-295 CNS it was > 100 µM and 53 µM; with OVCAR-4 ovarian it was 45.5 µM and > 100 µM; in the assay with PC-3 prostate, 94.1 µM and > 100 µM. Further, the TGI in the assay on SW-620 colon was > 100 µM and 20 µM; in the assay on NCI/ADR-RES ovarian it was 9.32 µM and 4.98 µM; with HOP-92 NSCLC, 9.08 µM. In addition, the GI50 in the assay on K-562 leukemia was 0.746 µM; with OVCAR-8 ovarian, 4.17 µM; with SF-295 CNS it was 3.12 µM; in the assay with OVCAR-4 ovarian it was 4.41 µM; with PC-3 prostate it was 3.81 µM; with SW-620 colon it was 0.906 µM. Also, the GI50 in the assay with NCI/ADR-RES ovarian was 1.25 µM; in the assay with HOP-92 NSCLC, 2.07 µM.

For the compound `O=C(O)CCSC(=O)Nc1ccccc1`, the TGI with UO-31 renal, in the assay with K-562 leukemia, in the assay with OVCAR-8 ovarian, in the assay with SF-295 CNS, in the assay on OVCAR-4 ovarian and with SW-620 colon was above 100 µM each time.

In the case of `CCOC(=O)CCn1cnc(N)n1`, the TGI in the assay with UO-31 renal, in the assay with K-562 leukemia, in the assay with OVCAR-8 ovarian, with SF-295 CNS, in the assay with OVCAR-4 ovarian and in the assay with SW-620 colon was above 100 µM throughout. This compound came in with a TGI in the assay with HOP-92 NSCLC above 100 µM.

On to `C=C1C(C(=O)O)C1C(=O)O` (stereo unspecified), for which the TGI with UO-31 renal, in the assay on K-562 leukemia, in the assay with OVCAR-8 ovarian, with SF-295 CNS, in the assay on OVCAR-4 ovarian and with SW-620 colon was above 100 µM each time. In addition, the TGI in the assay with HOP-92 NSCLC is above 100 µM.

Take `CCc1cccc(NC(=O)c2cc(/C=C/c3ccccc3)[nH]c(=S)n2)c1`: the TGI in the assay on UO-31 renal, with K-562 leukemia, in the assay on OVCAR-8 ovarian, in the assay with SF-295 CNS, in the assay with OVCAR-4 ovarian and in the assay on SW-620 colon was above 100 µM in each case. In the assay on HOP-92 NSCLC, the TGI was above 100 µM.

`CC(=O)[CH-]C(=O)c1ccccc1.CC(=O)[CH-]C(=O)c1ccccc1.CC(=O)[CH-]C(=O)c1ccccc1.[Br-].[Zr+4]`: the GI50 is above 100 µM in the assay with K-562 leukemia; above 100 µM in the assay with OVCAR-8 ovarian; 33.8 µM in the assay on SF-295 CNS; 82.1 µM with OVCAR-4 ovarian; above 100 µM with SW-620 colon; 18.6 µM in the assay with HOP-92 NSCLC. Besides, the TGI in the assay on K-562 leukemia is above 100 µM; with OVCAR-8 ovarian, above 100 µM; in the assay on SF-295 CNS, above 100 µM; in the assay with OVCAR-4 ovarian, above 100 µM; in the assay on SW-620 colon, above 100 µM; in the assay with HOP-92 NSCLC, 61.4 µM.

Regarding `N#CC(C#N)=C1CCC2C(=C(C#N)C#N)CCC12` (stereo unspecified), the TGI in the assay on UO-31 renal, in the assay on K-562 leukemia, in the assay on OVCAR-8 ovarian, with SF-295 CNS, with OVCAR-4 ovarian and in the assay with SW-620 colon was above 100 µM each time. Also, the TGI in the assay on HOP-92 NSCLC is above 100 µM.

Consider `CCc1ccccc1NC(=O)C(=O)C(C#N)c1c(Cl)cccc1Cl` (stereo unspecified), for which the TGI with UO-31 renal, in the assay with K-562 leukemia, in the assay with SF-295 CNS, in the assay on SW-620 colon and in the assay with HOP-92 NSCLC was above 100 µM each time.

Take `Nc1cc(N)c2nc(-c3ccccc3)c(NCc3ccc(Cl)c(Cl)c3)nc2c1`: the GI50 in the assay on UO-31 renal was 4.17 µM; in the assay on K-562 leukemia it was 3.09 µM; with OVCAR-8 ovarian, 3.41 µM; in the assay on SF-295 CNS, 15.5 µM; with OVCAR-4 ovarian it was 11.7 µM; in the assay with PC-3 prostate it was 1.75 µM. The GI50 in the assay on SW-620 colon is 3.26 µM; with NCI/ADR-RES ovarian it was 17.4 µM. The TGI with UO-31 renal is above 100 µM; in the assay with K-562 leukemia it was 17.8 µM; with OVCAR-8 ovarian, 13.5 µM; with SF-295 CNS, 37.2 µM; in the assay on OVCAR-4 ovarian, above 100 µM; with PC-3 prostate, 5.16 µM. Besides, the values for the TGI with SW-620 colon and with NCI/ADR-RES ovarian were 9.88 µM and 45.6 µM, respectively.
